PMC4433340 (PLoS Neglected Tropical Diseases, 2015)

Key:
[1] = system: EA.hy926 cells; test: Cell viability by MTT reduction assay, EA.hy926 cells; type: cell-based; conditions: Homo sapiens, EA.hy 926, 24 hours incubation, mean ± SD, n = 3, read-out: IC50, cellular viability, EA.hy926 cells
Protocol: EA.hy926 cells (ATCC CRL2922) are a human umbilical vein cell line established by fusing primary human umbilical vein cells with a thioguanine-resistant clone of A549 by exposure to polyethylene glycol (PEG). Hybrid clones were selected in HAT medium and screened for factor VIII-related antigen. The cell line was cultured following reported conditions. Cells were cultured on Iscove's Modified Dulbecco's Medium (IMDM, Biological Industries, Israel) supplemented with 10% v/v FBS, 100 U/mL penicillin, and […] streptomycin at 37°C and 5% CO2.
(§1) The effect of the drug on all cells and parasite viability was evaluated through the tetrazolium salt (MTT, Sigma-Aldrich) reduction assay as described. […] Cultures were incubated for 24 hours before adding MTT for 4 hours. The plates were incubated overnight with 10% SDS w/v in 0.01 M HCl at 37°C, and optical density (OD) was determined using a microplate reader (Labsystems Multiskan MS, Finland) at 570 nm. Under these conditions, the OD was directly proportional to viable cell number per well. All of the experiments were performed at least three times, and the data are shown as the means and their standard deviations from triplicate cultures.

[2] = system: HL-60 leukocyte adhesion to T. cruzi-infected endothelial cells; test: Leukocyte-endothelium cell adhesion assay; type: cell-based, human; conditions: 5 μM simvastatin or 20 μM benznidazole for 24 hours before 16 hours infection; HL-60 leukocytes
Protocol: The leukocyte adhesion assay was performed with the Cytoselect Leukocyte-Endothelium Adhesion Assay kit (CBA-210; Cell Biolabs, USA). Briefly, EA.hy926 cells were cultured in 96-well plates that had been previously coated with gelatin for 1 hour. […] LeukoTracker-labeled leukocytes (HL60 cells) were added to the monolayer and incubated for 90 min. After thorough washing, cells were lysed, and fluorescence was measured at 480 nm excitation/520 nm emission. The percentage of adherent leukocytes was calculated: % adherence = adherent signal/total signal. All of the determinations were performed in triplicate using a fluorescence microplate reader (Varioskan, Thermo Scientific).

[3] = system: NF-κB pathway (p-IKK, p-IκB) in T. cruzi-infected EA.hy926 cells; test: IKK and IκB phosphorylation by Western blot; type: cell-based, human; conditions: 5 μM simvastatin or 20 μM benznidazole, T. cruzi 1 hour
Protocol: (§2) 5x10^5 endothelial cells were rinsed once with PBS and scraped. Proteins were extracted into 100 μL RIPA buffer plus a protease and phosphatase inhibitor cocktail (Radio-Immunoprecipitation Assay; Millipore Corporation, USA) at 4°C. Total protein was quantified with the Lowry assay. Samples in loading buffer (10% SDS, 50% glycerol, 0.5 M Tris, 0.1% bromophenol blue, and 1 M dithiothreitol, pH 6.8) were electrophoretically separated by 10% SDS-PAGE and transferred to a nitrocellulose membrane. Nitrocellulose membranes were incubated with blocking solution (5% w/v nonfat dry milk, 0.1% Tween-20 in Tris-buffered saline) at room temperature for 1 hour. Then, the membranes were incubated at 4°C overnight with 1 mL solution of primary antibodies against E-selectin (1:1000) and α-Tubulin (1:10.000) from Sigma-Aldrich, ICAM-1 (1:2000) and VCAM-1 (1:1000) from Abcam, 7 ml solution of p-IKK (1:1000), IKK (1:1000), p-IκB (1:1000) and IκB (1:1000) from Cell signaling (Cell Signaling Technologies, USA). Bound antibodies were detected with horseradish peroxidase-conjugated secondary antibodies and visualized by Lumminata forte (Millipore). The nitrocellulose was stripped between reprobes using Mild stripping (Millipore) for 10 minutes. Developed films were scanned, and band densitometry was analyzed using ImageJ software (ImageJ 1.47v).

[4] = system: 15-epi-lipoxin A4 production by T. cruzi-infected EA.hy926 cells; test: 15-epi-lipoxin A4 quantification by DSA-TOF MS in culture supernatants; type: cell-based, human; conditions: 5 μM simvastatin
Protocol: 8x10^5 EA.hy926 cells/well were cultured in 6-well plates (IMDM 10% SFB). […] 15-epi-LXA4 determination was performed by:
• ELISA assay: the supernatant from the cell cultures was assayed using a 15-epi-LXA4 BioAssay ELISA Kit (USBiological, USA) following manufacturer’s instructions. • AxION DSA—TOF MS determination: To determine 15-epi-lipoxin A4 levels in EAhy926 cell culture supernatants, an AxION Direct Sample Analysis (DSA) that was integrated with an AxION 2 time-of-flight (TOF) mass spectrometer (PerkinElmer, Shelton, CT, USA) was employed. For extraction, all of the samples were loaded onto a solid phase extraction and eluted with 1 mL chloroform three times successively. Then, the samples were transferred into a clean tube, and the chloroform in the samples was evaporated in a water bath. Finally, the samples were resuspended in 100 μL ethanol, and 10 μL were pipetted onto a stainless mesh. For the calibration curve, 15-epi-lipoxin A4 (cat#90415, Cayman Chemical, USA) was diluted in PBS to achieve different final concentrations (see S1 Fig). From each tube, 10 μL was pipetted onto a stainless mesh, and DSA—TOF determination was performed. The AxION DSA conditions were as follows: 5 μA corona current, 250°C heater temperature, 80 psi auxiliary gas (N2) pressure, 4 L/min drying gas (N2) flow, and 25°C drying gas (N2) temperature. […] Mass spectra were acquired with a mass range of 100–1000 m/z and an acquisition rate of 2 spectra/sec. To maintain mass accuracy, […] lock mass ions were used (m/z 119.0400, m/z 556.0000 and m/z 805.9900). All of the samples were analyzed for only 10 sec. The standards used were 15-epi-lipoxin A4 (cat#90415, Cayman Chemical,) and 5(S),6(R)-Lipoxin A4 methyl ester (cat#10033, Cayman Chemical) as an internal standard. These were confirmed in seconds by accurate mass and isotopic distribution of parent and fragment ions using DSA/TOF and AxION software, and compound identification was performed using the standards. All of the samples were analyzed in triplicate.

[5] = system: HUVEC; test: Cell viability by MTT reduction assay, HUVEC; type: cell-based; conditions: Homo sapiens, 24 hours incubation, mean ± SD, n = 3, read-out: IC50, cellular viability, HUVEC
Protocol: HUVECs (C-015-10C, Cascade Biologics, Life Technologies, USA) are primary human umbilical vein endothelial cells that are pooled from multiple donors. Cells were cultured in medium 200 (Cascade Biologics, USA) that had been supplemented with low serum growth supplement (LSGS, Cascade Biologics).
as §1

[6] = system: total E-selectin, ICAM-1 and VCAM-1 protein in T. cruzi-infected endothelial cells; test: Total ECAM protein by Western blot; type: cell-based, human; conditions: 5 μM simvastatin or 20 μM benznidazole for 24 hours before 16 hours infection
Protocol: as §2

[7] = system: T. cruzi epimastigotes; conditions: at concentrations in the millimolar range; cited from earlier work

Compound	IC50 [1]	Leukocyte adhesiveness to infected endothelial cells [2]	Response of the IKK-IκB system (p-IKK, p-IκB) [3]	15-epi-lipoxin A4 concentration (Mean ± SD) ([4]; 3 hours)	15-epi-lipoxin A4 concentration (Mean ± SD) ([4]; 6 hours)	15-epi-lipoxin A4 concentration (Mean ± SD) ([4]; 12 hours)	15-epi-lipoxin A4 concentration (Mean ± SD) ([4]; 24 hours)	IC50 [5]	Total cell adhesion molecule protein amount [6]	Epimastigote proliferation [7]
CCC(C)(C)C(=O)O[C@H]1C[C@@H](C)C=C2C=C[C@H](C)[C@H](CC[C@@H]3C[C@@H](O)CC(=O)O3)[C@H]21 [Simvastatin]	65.4 ± 1.02 µM	adhesiveness decreased	significantly decreased the response of the Ikk-IkB system	1.58 ± 0.21 ng/mL	3.58 ± 1.22 ng/mL	37.28 ± 11.23 ng/mL	326 ± 34.25 ng/mL	84.4 ± 1.56 µM	decreased cell adhesion molecule amount	decreased epimastigote proliferation
O=C(Cn1ccnc1[N+](=O)[O-])NCc1ccccc1 [Benznidazole]	< 100 µM	adhesiveness decreased	significantly decreased the response of the Ikk-IkB system					< 100 µM	decreased cell adhesion molecule amount	
